Holding throughout (assay type): in vivo
For assay [1], the system named is crabgrass (Digitaria sanguinalis L.). The experiment in a line: Foliar treatment pot test, visual growth inhibition rate, crabgrass (DS). The note with it: Digitaria sanguinalis, foliar. The procedure, abridged: (§1)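 Seeds were sown in upland soil pots, and plants were sprayed on the foliage at a predetermined leaf stage with herbicidal compositions diluted in water at 300 L/ha. Growth inhibition was rated visually. Expected combination activity was calculated by Colby's formula to assess synergy.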

Assay [2] has as its system velvetleaf (Abutilon theophrasti MEDIC.). As to the kind of experiment: Foliar treatment pot test, visual growth inhibition rate, velvetleaf (AT). The procedure, abridged:
as §1

The subject of assay [3] is giant foxtail (Setaria faberi Herrm.). The experiment in a line: Foliar treatment pot test, visual growth inhibition rate, giant foxtail (SF). The conditions noted are these: 336 h, read-out: Growth inhibition rate (%) of SF Measured value. An excerpt: (§2) When the herbicidal activity in a case where two active ingredients are combined, is larger than the simple sum of the respective herbicidal activities of the two active ingredients (the expected activity), it is called a synergistic effect. The activity expected by the combination of two active ingredients can be calculated as follows (Colby S. R., “Weed”, vol. 15, p. 20-22, 1967). E=α+β−(α×β÷100) where
(§3) Upland field soil was put into a 1/1,000,000 hectare pot, and seeds of various plants (barnyardgrass (Echinochloa crus-qalli L.), crabgrass (Digitaria sanguinalis L.), giant foxtail (Setaria faberi Herrm.), velvetleaf (Abutilon theophrasti MEDIC.) and prickly sida (Sida spinosa L.)) were sown. When the respective plants reached predetermined leaf stage, herbicidal compositions in predetermined amounts were diluted with water in an amount corresponding to 300 L/ha and applied for foliar treatment by a small sprayer.
(§4) Further, in accordance with the above Colby's formula, the growth inhibition rate (calculated value) was calculated. In Tables, with respect to the compound Q, Compound Nos. in Table 1 are described, and with respect to other herbicidal compounds, common names are described. Further, in Tables, barnyardgrass is represented by “EC”, crabgrass by “DS”, giant foxtail by “SF”, velvetleaf by “AT”, and prickly sida by “SS”.

Assay [4] has as its system barnyardgrass (Echinochloa crus-qalli L.). The experiment in a line: Foliar treatment pot test, visual growth inhibition rate, barnyardgrass (EC). The note with it: 504 h, 4.0-5.0 leaf stage, 21 DAT, read-out: Growth inhibition rate (%) of EC Measured value.
Excerpt: as §2, §3, §4

Each structure is given as a SMILES string. Where two headings read alike, the source gives them in different places.

`CCn1ncc(C(=O)c2ccc(S(C)(=O)=O)c(OCCOC)c2C)c1OC(C)OC(=O)OC` (centres unmarked) [NO. 4, 1-(1-ethyl-4-(3-(2-methoxyethoxy)-2-methyl-4-(methylsulfonyl)benzoyl)-1H-pyrazol-5-yloxy)ethyl methyl carbonate]: the inhibition at 7 g/ha turned out to be 75% in assay [1] (336 h, read-out: Growth inhibition rate (%) of DS Measured value, 5.0-5.5 leaf stage, 14 DAT, 7 g/ha); 80% in assay [1] (552 h, read-out: Growth inhibition rate (%) of DS Measured value, 4.0-5.1 leaf stage, 23 DAT, 7 g/ha); 70% in assay [2] (Abutilon theophrasti, foliar, 336 h, read-out: Growth inhibition rate (%) of AT Measured value, 3.0-4.0 leaf stage, 14 DAT, 7 g/ha); 75% in assay [3]. In addition, the inhibition at 5 g/ha in assay [1] (480 h, read-out: Growth inhibition rate (%) of DS Measured value, 3.6-3.8 leaf stage, 20 DAT, 5 g/ha) was 40%; in assay [1] (480 h, read-out: Growth inhibition rate (%) of DS Measured value, 3.7-4.0 leaf stage, 20 DAT, 5 g/ha), 93%; in assay [1] (480 h, read-out: Growth inhibition rate (%) of DS Measured value, 4.0-4.2 leaf stage, 20 DAT, 5 g/ha), 40%; in assay [1] (480 h, read-out: Growth inhibition rate (%) of DS Measured value, 4.5-5.2 leaf stage, 20 DAT, 5 g/ha) it was 53%; in assay [1] (480 h, read-out: Growth inhibition rate (%) of DS Measured value, 5.1-5.2 leaf stage, 20 DAT, 5 g/ha), 48%; in assay [1] (504 h, read-out: Growth inhibition rate (%) of DS Measured value, 4.0-5.1 leaf stage, 21 DAT, 5 g/ha), 75%. The inhibition at 5 g/ha in assay [2] (Abutilon theophrasti, foliar, 480 h, read-out: Growth inhibition rate (%) of AT Measured value, 4.0-4.2 leaf stage, 20 DAT, 5 g/ha) was 48%; in assay [2] (Abutilon theophrasti, foliar, 480 h, read-out: Growth inhibition rate (%) of AT Measured value, 4.1-4.2 leaf stage, 20 DAT, 5 g/ha) it was 55%; in assay [2] (Abutilon theophrasti, foliar, 504 h, read-out: Growth inhibition rate (%) of AT Measured value, 4.0-4.3 leaf stage, 21 DAT, 5 g/ha) it was 35%; in assay [2] (Abutilon theophrasti, foliar, 504 h, read-out: Growth inhibition rate (%) of AT Measured value, AT 4.0-4.3 leaf stage, 21 DAT, active ingredient 5 g/ha) it was 35%; in assay [2] (Abutilon theophrasti, foliar, 528 h, read-out: Growth inhibition rate (%) of AT Measured value, 4.5-5.0 leaf stage, 22 DAT, 5 g/ha), 40%; in assay [2] (Abutilon theophrasti, foliar, 552 h, read-out: Growth inhibition rate (%) of AT Measured value, 3.0-4.2 leaf stage, 23 DAT, 5 g/ha) it was 75%. The inhibition at 10 g/ha in assay [1] (480 h, read-out: Growth inhibition rate (%) of DS Measured value, 3.6-3.8 leaf stage, 20 DAT, 10 g/ha) came out at 50%; in assay [1] (480 h, read-out: Growth inhibition rate (%) of DS Measured value, 4.0-4.2 leaf stage, 20 DAT, 10 g/ha), 50%; in assay [1] (480 h, read-out: Growth inhibition rate (%) of DS Measured value, 4.5-5.2 leaf stage, 20 DAT, 10 g/ha), 89%; in assay [1] (480 h, read-out: Growth inhibition rate (%) of DS Measured value, 5.0-5.2 leaf stage, 20 DAT, 10 g/ha) it was 93%; in assay [1] (480 h, read-out: Growth inhibition rate (%) of DS Measured value, 5.1-5.2 leaf stage, 20 DAT, 10 g/ha) it was 73%; in assay [1] (552 h, read-out: Growth inhibition rate (%) of DS Measured value, 4.5-5.3 leaf stage, 23 DAT, 10 g/ha) it was 87%. Besides, the inhibition at 10 g/ha amounted to 73% in assay [2] (Abutilon theophrasti, foliar, 480 h, read-out: Growth inhibition rate (%) of AT Measured value, 4.0-4.2 leaf stage, 20 DAT, 10 g/ha); 63% in assay [2] (Abutilon theophrasti, foliar, 480 h, read-out: Growth inhibition rate (%) of AT Measured value, 4.1-4.2 leaf stage, 20 DAT, 10 g/ha); 63% in assay [2] (Abutilon theophrasti, foliar, 480 h, read-out: Growth inhibition rate (%) of AT Measured value, 4.2-4.3 leaf stage, 20 DAT, 10 g/ha); 60% in assay [2] (Abutilon theophrasti, foliar, 504 h, read-out: Growth inhibition rate (%) of AT Measured value, 4.0-4.3 leaf stage, 21 DAT, 10 g/ha); 60% in assay [2] (Abutilon theophrasti, foliar, 504 h, read-out: Growth inhibition rate (%) of AT Measured value, AT 4.0-4.3 leaf stage, 21 DAT, active ingredient 10 g/ha); 50% in assay [2] (Abutilon theophrasti, foliar, 528 h, read-out: Growth inhibition rate (%) of AT Measured value, 4.5-5.0 leaf stage, 22 DAT, 10 g/ha). In addition, the inhibition at 10 g/ha in assay [2] (Abutilon theophrasti, foliar, 552 h, read-out: Growth inhibition rate (%) of AT Measured value, 3.0-4.2 leaf stage, 23 DAT, 10 g/ha) is 90%. Also, the inhibition at 20 g/ha was 73% in assay [1] (480 h, read-out: Growth inhibition rate (%) of DS Measured value, 3.6-3.8 leaf stage, 20 DAT, 20 g/ha); 73% in assay [1] (480 h, read-out: Growth inhibition rate (%) of DS Measured value, 4.0-4.2 leaf stage, 20 DAT, 20 g/ha); 98% in assay [1] (480 h, read-out: Growth inhibition rate (%) of DS Measured value, 5.0-5.2 leaf stage, 20 DAT, 20 g/ha); 94% in assay [1] (528 h, read-out: Growth inhibition rate (%) of DS Measured value, 4.8-5.5 leaf stage, 22 DAT, 20 g/ha); 99% in assay [1] (552 h, read-out: Growth inhibition rate (%) of DS Measured value, 4.5-5.3 leaf stage, 23 DAT, 20 g/ha); 70% in assay [2] (Abutilon theophrasti, foliar, 480 h, read-out: Growth inhibition rate (%) of AT Measured value, 4.2-4.3 leaf stage, 20 DAT, 20 g/ha). Also, the inhibition at 20 g/ha was determined as 90% in assay [2] (Abutilon theophrasti, foliar, 528 h, read-out: Growth inhibition rate (%) of AT Measured value, 4.5-5.0 leaf stage, 22 DAT, 20 g/ha) and 95% in assay [2] (Abutilon theophrasti, foliar, 552 h, read-out: Growth inhibition rate (%) of AT Measured value, 3.0-4.2 leaf stage, 23 DAT, 20 g/ha). Besides, the “Growth inhibition rate (%) of AT Measured value” in assay [2] (3.0-4.0 leaf stage, 14 DAT, 15 g/ha) is on record as 80%; in assay [2] (4.0-4.2 leaf stage, 20 DAT, 20 g/ha), 98%; in assay [2] (4.2-4.3 leaf stage, 20 DAT, 5 g/ha) it was 58%; in assay [2] (4.2-4.3 leaf stage, 20 DAT, 10 g/ha), 65%.
As for `COC(=O)c1sccc1S(=O)(=O)NC(=O)Nc1nc(C)nc(OC)n1` [Thifensulfuron-methyl], the inhibition at 5 g/ha in assay [4] (5 g/ha) turned out to be 0%; in assay [3] (4.0-5.0 leaf stage, 14 DAT, 5 g/ha) it was 0%.
Regarding `CCCCCCCCSC(=O)Oc1cc(Cl)nnc1-c1ccccc1` [Pyridate, pyridate], the inhibition at 100 g/ha in assay [4] (100 g/ha) stood at 0%; in assay [3] (4.0-5.0 leaf stage, 14 DAT, 100 g/ha), 0%. Moreover, the inhibition at 200 g/ha stood at 0% in assay [1] (528 h, 4.0-5.0 leaf stage, 22 DAT, 200 g/ha, read-out: Growth inhibition rate (%) of DS Measured value) and 30% in assay [2] (Abutilon theophrasti, foliar, 336 h, 4.1-4.5 leaf stage, 14 DAT, 200 g/ha, read-out: Growth inhibition rate (%) of AT Measured value).

Values taken from patent US8492310B2, “Herbicidal compositions containing benzoylpyrazole compounds” (priority 2008, dated 2013).
